One data set addresses T1, mouse TLR7 (mTLR7) (Mus musculus, UniProt P58681).
T1 construct: host or cells: HEK-Blue-mTLR7 (HEK293)
T1 sequence (P58681 27-1050): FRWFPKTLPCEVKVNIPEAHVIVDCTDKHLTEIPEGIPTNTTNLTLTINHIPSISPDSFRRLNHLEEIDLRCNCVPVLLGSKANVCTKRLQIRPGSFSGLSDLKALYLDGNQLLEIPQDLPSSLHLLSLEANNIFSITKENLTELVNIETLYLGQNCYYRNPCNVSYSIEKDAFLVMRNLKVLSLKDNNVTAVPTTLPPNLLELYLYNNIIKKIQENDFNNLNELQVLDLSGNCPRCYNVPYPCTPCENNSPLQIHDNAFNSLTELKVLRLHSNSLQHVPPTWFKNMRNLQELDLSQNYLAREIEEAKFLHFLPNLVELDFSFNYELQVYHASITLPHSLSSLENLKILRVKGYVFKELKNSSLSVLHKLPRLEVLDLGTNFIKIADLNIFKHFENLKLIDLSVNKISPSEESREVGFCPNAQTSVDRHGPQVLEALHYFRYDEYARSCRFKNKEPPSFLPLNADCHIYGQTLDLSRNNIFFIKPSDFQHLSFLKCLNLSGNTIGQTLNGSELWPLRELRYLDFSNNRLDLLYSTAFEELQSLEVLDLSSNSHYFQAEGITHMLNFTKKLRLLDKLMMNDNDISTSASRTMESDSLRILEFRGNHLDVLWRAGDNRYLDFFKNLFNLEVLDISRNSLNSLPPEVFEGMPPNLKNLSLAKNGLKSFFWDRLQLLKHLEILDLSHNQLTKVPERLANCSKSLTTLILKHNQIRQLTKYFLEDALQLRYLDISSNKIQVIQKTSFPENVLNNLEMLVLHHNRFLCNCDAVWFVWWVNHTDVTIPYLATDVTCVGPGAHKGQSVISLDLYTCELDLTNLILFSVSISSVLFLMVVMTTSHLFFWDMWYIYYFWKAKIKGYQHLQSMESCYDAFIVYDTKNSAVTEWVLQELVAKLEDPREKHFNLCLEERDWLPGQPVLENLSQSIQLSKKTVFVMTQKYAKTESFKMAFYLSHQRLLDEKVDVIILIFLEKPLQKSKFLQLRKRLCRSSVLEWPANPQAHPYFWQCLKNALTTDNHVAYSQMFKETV
Put plainly: HEK mTLR7 reporter cells NF-κB/SEAP. Type of data set: cell-based. Particulars: ligands at indicated concentrations + 1 μM ODN, 24 h. On the procedure: (§1) HEK-Blue™-mTLR7, mTLR8, hTLR7, hTLR8, and RAW-Blue™ cells were purchased from InvivoGen and were used to evaluate bioactivities of lipo ODNs and TLR 7/8 ligands in vitro. All these cell lines were cultured with DMEM supplemented with 10% FBS, 1% P/S and 100 μg/mL Normocin at 37° C. with 5% CO2. […] After incubating for 24 h, SEAP levels were quantified by developing supernatants with QuantiBlue™ substrate for 1 h and reading absorption at 620 nm, following manufacturer's instructions.
Raw Blue cells which respond to both murine TLR-7 and TLR-8 are also included to assess the overall modulatory effect. half-maximal effective concentration (EC50) and potency of several classic TLR7/8 ligands were evaluated in murine TLR7 and TLR8 reporter cells.

For another data set, the target named is T2, human TLR8 (hTLR8) (Homo sapiens, UniProt Q9NR97).
T2 construct: host or cells: HEK-Blue-hTLR8 (HEK293)
T2 sequence (Q9NR97 27-1041): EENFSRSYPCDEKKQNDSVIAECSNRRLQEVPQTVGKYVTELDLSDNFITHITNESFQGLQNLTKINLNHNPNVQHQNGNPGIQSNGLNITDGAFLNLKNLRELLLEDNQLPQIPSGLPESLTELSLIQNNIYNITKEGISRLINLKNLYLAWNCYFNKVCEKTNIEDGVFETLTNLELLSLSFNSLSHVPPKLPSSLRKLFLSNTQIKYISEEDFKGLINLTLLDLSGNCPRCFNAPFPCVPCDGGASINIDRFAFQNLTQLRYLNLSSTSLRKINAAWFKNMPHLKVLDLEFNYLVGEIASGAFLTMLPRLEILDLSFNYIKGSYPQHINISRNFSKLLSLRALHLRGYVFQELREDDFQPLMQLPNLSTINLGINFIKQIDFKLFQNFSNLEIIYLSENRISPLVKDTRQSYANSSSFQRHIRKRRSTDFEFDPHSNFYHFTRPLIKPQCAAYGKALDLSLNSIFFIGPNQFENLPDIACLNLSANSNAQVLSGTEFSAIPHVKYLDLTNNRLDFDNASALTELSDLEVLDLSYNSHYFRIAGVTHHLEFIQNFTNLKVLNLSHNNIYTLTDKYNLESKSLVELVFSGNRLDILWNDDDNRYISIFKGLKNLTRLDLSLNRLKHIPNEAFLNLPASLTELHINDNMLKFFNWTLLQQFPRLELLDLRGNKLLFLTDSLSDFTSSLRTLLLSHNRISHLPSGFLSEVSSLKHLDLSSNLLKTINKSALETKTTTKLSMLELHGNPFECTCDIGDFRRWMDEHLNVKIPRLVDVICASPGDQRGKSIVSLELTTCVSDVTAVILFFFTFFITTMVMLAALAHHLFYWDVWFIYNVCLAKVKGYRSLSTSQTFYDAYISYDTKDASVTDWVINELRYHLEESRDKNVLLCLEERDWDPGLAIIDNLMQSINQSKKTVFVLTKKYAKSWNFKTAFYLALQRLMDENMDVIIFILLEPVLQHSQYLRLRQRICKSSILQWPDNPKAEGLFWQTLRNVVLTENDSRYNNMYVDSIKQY
As to the kind of experiment: HEK hTLR8 reporter cells NF-κB/SEAP. Conditions: 1 μg/ml or indicated concentrations TLR8-506 + 1 μM ODN, 24 h. The format is cell-based. On the procedure:
as §1
HEK293 cells transfected with human TLR7 or 8 were used. The cells were stimulated with IMQ in the presence of several inhibitory oligonucleotides reported in the literature. […] In contrast, all the unmodified ODNs maintained their inhibitory function, reducing the NF-κB secretion to basal levels (FIG. 8A). We then plotted the IMQ dose response curve in human TLR-7 transfected HEK293 cells.

Another data set concerns Raw-Blue reporter cells. Put plainly: Cellular uptake and confocal imaging in Raw-Blue cells. Type of data set: cell-based, murine. On the procedure:
DC 2.4 cells were cultured with RPMI-1640 supplemented with 10% FBS and 1% P/S; Raw-Blue cells were cultured as previously described. […] After incubation, cells were washed twice with 1×PBS by centrifuge at 800×g for 5 min prior to flow cytometry quantification. To visualize in vitro cellular uptake, DC 2.4 cells or Raw-Blue cells were cultured and incubated under the same experimental conditions and were subjected to confocal imaging by Zeiss LSM 510 microscope. […] Inhibitors: 5 μg/mL Filipin; 50 μM EIPA; 300 mM sucrose were tested.

As for 5′-TTTTTTTTTTTTTTTTTTTT-3′ [T20], the “mTLR7 activation by IMQ, CL075, R848 in the presence of the ODN” value in the data set with mouse TLR7 (mTLR7) is “suppressed the TLR-7 activation”. Further, the “TLR8-506 stimulation of hTLR8 cells in the presence of the ODN” value in the data set with human TLR8 (hTLR8) is “enhanced the stimulation of TLR8-506”. The colocalization with lysosomes result in the data set with Raw-Blue reporter cells (1 μM FAM-labeled ODN, FBS-supplemented and FBS-free, LysoTracker Red) is “colocalized with lysosomes regardless of the presence of FBS”. Further, the “effect on cellular uptake of FITC-labeled IMDQ” value in the data set on Raw-Blue reporter cells (2 μM FITC-IMDQ + 1 μM ODN) is “neither T20 nor lipo T20 increased cellular uptake”.

Values taken from patent US11504425B2, “Amphiphilic oligodeoxynucleotide conjugates as adjuvant enhancers” (WAYNE STATE UNIVERSITY, priority 2019, dated 2022).
